{
  "source": "ChEMBL document CHEMBL3046521",
  "about": "“Synthesis and antitumor activity of (4-hydroxyphenyl)[5-substituted alkyl/aryl)-2-thioxo-1,3,4-thiadiazol-3-yl]methanone and [(3,4-disubstituted)-1,3-thiazol-2ylidene]-4-hydroxybenzohydrazide” (2011)",
  "system": "A498",
  "test": "Cytotoxicity against Homo sapiens (human) A498 cells after 48 hr by sulforhodamine B assay",
  "format": "functional",
  "conditions": "A498, 48 h",
  "data": [
    {"smiles": "O=C(c1ccc(O)cc1)n1nc(-c2c(Cl)cccc2Cl)sc1=S", "values": [
      {"measurement": "GI50", "result": 2.34, "unit": "µM"},
      {"measurement": "CC50", "setting": "read-out: pLC50 (the source's name) (converted)", "result": 53.7, "unit": "µM"},
      {"measurement": "TGI", "setting": "read-out: pTGI (converted)", "result": 17, "unit": "µM"}
    ]}
  ]
}
